Source: US10675286B2, “Heterocyclic compounds and uses thereof” (Infinity Pharmaceuticals, Inc., priority 2014, dated 2020)

Columns and labels:
[1] = system: CXCL12-induced pAKT in T-cells; experiment: CXCL12-induced pAKT in T-cells of CLL patient PBMCs; assay type: cell-based, human
Excerpt: There was a tight correlation between the EC50s observed in the CXCL12-induced pAKT assay and the T-cell migration assay.

[2] = Oral pharmacokinetics of Compound BB in dog; assay type: in vivo; conditions: 5 mg/kg oral
Excerpt: Compound BB's oral exposure is high in rat, dog and monkey. Good oral bioavailability and low clearance in rodent and non-rodent animal species results in high oral exposure.

Lewis Lung Carcinoma = Lewis Lung Carcinoma model; assay type: in vivo; conditions: single agent
LLC tumor brei = LLC tumor brei model, Compound BB with or without cyclophosphamide; assay type: in vivo, mouse
Method: In this experiment, treatment began when tumors reached approx. 150 mm^3—around day 12. Caliper and xenogen images were monitored. Treatment groups n=13-15/group. […] Samples for FACs analysis were collected on day 23 post implant. Using FACS, cells were assayed for the level of CD11b and Gr-1.

CT26 colon carcinoma = experiment: CT26 allograft colon cancer model; assay type: in vivo, mouse
Excerpt: CT26 is an N-nitroso-N-methylurethane-(NNMU) induced, undifferentiated mouse colon carcinoma cell line. It is cloned to generate the cell line designated CT26.WT (ATCC CRL-2638). The syngeneic CT26 colon cancer model is established by subcutaneous implantation of CT26 cells into BALB/c mice. This model has been extensively used to study the anti-tumor activity of immunotherapies (Yu et al., Clinical Cancer Research, 2010; Daraiswamy et al., Cancer Research, 2013). […] In some embodiments, a compound provided herein can be administered alone or in combination with an anti-PD-L1.
CT26 is an N-nitroso-N-methylurethane-(NNMU) induced, undifferentiated colon carcinoma cell line. It was cloned to generate the cell line designated CT26.WT (ATCC catalog number CRL-2638). 5-6 week old female, Balb/c mice (Jackson Labs) were implanted subcutaneously with 5×10^5 CT26 cells in 200 μl PBS. CT26 cells were cultured in DMEM supplemented with 10% FBS. Dosing commenced when tumors reached an average volume of […]. Administration of the compounds was performed according to the following Table:
Isotype control (Ultra-LEAF purified rat IgG2b, k isotype control, clone RTK4530, Lot B180477, Biolegend, Cat #70640)
Anti-PD-L1 antibody (Ultra-LEAF purified anti-mouse CD274-B7H1, PD-L1-, clone 10F9G2, Lot B178331, Biolegend, Cat #124318) […]
Body weights and tumor volumes were measured three times per week.

With `C[C@H](NC(=O)c1c(N)nn2cccnc12)c1cc2cccc(C#Cc3cnn(C)c3)c2c(=O)n1-c1ccccc1` [Compound BB] the “Inhibition of CXCL12-induced pAKT in T-cells (FIG. 9)” value [1] was “more strongly than a PI3K-δ inhibitor”, the “Oral exposure (plasma concentrations within 24 hours, FIG. 43)” value [2] was “high” and the “activity in the Lewis Lung Carcinoma model” value (Lewis Lung Carcinoma) was “single agent activity”. For the same compound, the “Tumor growth (FIG. 48)” value (LLC tumor brei; Compound BB 15 mg/kg QD PO, cyclophosphamide 50 mg/kg EOD IP) was “reduced tumor growth by about the same amount”, the “CD206 population in tumor (FACS, FIG. 52)” value (LLC tumor brei; Compound BB alone or with cyclophosphamide) was “decrease in the CD206 population” and the “MDSC expansion after cyclophosphamide treatment (FIG. 28)” value (CT26 colon carcinoma; CT26 model, 5-9 day time frame) was “decreased”. The “Monocytic iMCs (flow cytometry, FIG. 38B)” value (CT26 colon carcinoma; CT26 subcutaneous tumors) was “monocytic iMCs were decreased”.
